What was measured:
A2780cis spheroids = assay: 3D spheroid assay, A2780cis; type: cell-based, human; conditions: FEN1i/cisplatin combination vs cisplatin or FEN1i monotherapy
Description: with ice cold PBS and fixed in 70% ethanol for 1h at -20°C. After removal of the fixative solution by centrifugation, cells were stained with 2 µg/ml of phospho-Histone (γH2AX) Ser139 (16202A, Millipore, UK) to detect DSBs.
Cell cycle progression: Cells were treated with 20 µg/ml RNase A (12091021, Invitrogen) and then 10 µg/ml Propidium Iodide (P4170, Sigma Aldrich) was added to determine the cell cycle distribution. The samples were analysed on a Beckman-Coulter FC500 flow cytometer using a 488nm laser for excitation and emission data for PI collected using a 620nm bandpass filter (FL3) and a 525nm bandpass filter (FL1) for FITC-anti-phospho-Histone H2A.X.
Apoptosis detection: Annexin V detection kit (556547, BD Biosciences) was used to quantify apoptotic cells. Briefly, cells were trypsinized, washed with PBS and the cellular pellet was re-suspended in Anexin Binding Buffer (1×). […] All the samples were analysed on a Beckman-Coulter FC500 flow cytometer. The percentage of apoptotic cells was determined (late apoptotic = FITC-Annexin V positive, PI positive early apoptotic = FITC-Annexin V positive, PI negative; live cells = FITC-Annexin V negative, PI negative) and compared for untreated and treated samples. […]
To quantify cell viability, LIVE/DEAD Viability/Cytotoxicity Kit (L3224, Thermo Fisher Scientific) was used. […] At least 10 spheroids were measured. […]

FEN1 mRNA in A2780 cells = assay: qRT-PCR FEN1 mRNA expression, A2780; type: cell-based, human; conditions: 24 h exposure to cisplatin
Description: (1:200, ab26343). Infrared dye-labelled secondary antibodies (Li-Cor) [IRDye 800CW Donkey Anti-Rabbit IgG and IRDye 680CW Donkey Anti-Mouse IgG] were incubated at a dilution of 1:10000 for 1 h. Membranes were scanned with a LiCor Odyssey machine (700 and 800 nm) to determine protein expression. ß-Tubulin or ß-actin was used as a loading controls for the whole cell lysates. GADPH and YYI were used as loading controls to cytoplasmic and nuclear fractions, respectively. First incubation was with FEN1 antibody and then imaged. This was followed by incubation with loading control and then imaged for analysis. Bar charts show means of optical density (O.D.) ± S.D and all data is representative of at least three independent experiments. qRT-PCR analysis of FEN1 gene expre ssion: RNA was extracted using the RNeasy Mini Kit (74104, Qiagen) and quantified using a Nanodrop 2000c (Thermo Fisher Scientific). cDNA synthesis was performed using the RT2 First Strand Kit (330404, Qiagen). Real time PCR was carried out on an Applied Biosystems […] FAST cycler.
Neutral COMET assay: 1.0x10^5 cells per well were seeded in 6 well tissue culture plates and incubated at 37°C and 5% CO2 overnight. […] Fifty comets were scored per sample using Comet Assay III/IV image analysis software (Perceptive Instruments, Bury St Edmonds, UK). […]

Row | SMILES | cell death in 3D-spheroids (A2780cis spheroids) | FEN1 mRNA expression after cisplatin (FEN1 mRNA in A2780 cells)
1 | Cc1csc2c1c(=O)n(O)c(=O)n2-c1ccccc1 [PTPD, 3-hydroxy-5-methyl-1-phenylthieno [2,3 d]pyrimidine-2,4(1H,3H)-dione] | increased cell death | 
2 | N.N.[Cl][Pt][Cl] [cisplatin] |  | transient induction of FEN1 mRNA expression on day 1

Reference: paper PMC8070745, “FEN1 Blockade for Platinum Chemo-Sensitization and Synthetic Lethality in Epithelial Ovarian Cancers” (Cancers, 2021)
